Reference: patent US10988433B2, “Cyclohexyl GPR40 agonists for the treatment of type II diabetes” (Janssen Pharmaceutica NV, priority 2016, dated 2021)

Assays:
[1] = molecular target: T1, human GPR40 (Homo sapiens, UniProt O14842); experiment: GPR40 calcium flux assay, HEK293 cells stably expressing human GPR40; assay type: cell-based; details: transfected HEK293 cells stably expressing human GPR40, Fluo 8 dye, read-out: hGPR40 Ca2+ Assay EC50
T1 construct: expressed in transfected cells
Protocol: (§1) Compounds were tested in a calcium flux assay using transfected HEK293 cells stably expressing either human GPR40 or rat GPR40. Human GPR40 expressing cells were cultured in DMEM-High Glucose media supplemented with 10% fetal bovine serum, 1×L-Glutamine, 1×Penicillin/Streptomycin and 500 μg/mL G418. Rat GPR40 expressing cells were cultured in DMEM-High Glucose media supplemented with 10% fetal bovine serum and 1 μg/mL puromycin. Cells were plated into poly-D-lysine coated 384-well plates and cultured overnight in a 37° C. humidified tissue culture incubator under 5% CO2/[…] atmosphere. On the day of the experiment, the culture media was replaced with assay buffer (HBSS, 20 mM HEPES, 0.1% BSA) and the cells incubated at 37° C. for 1 h. Calcium-sensitive fluorescent dye (Fluo 8 No-Wash Calcium Dye, ABD Bioquest) was then added and the cells incubated for another 30 min at 37° C. followed by 15 min at room temperature while protected from the light. The cell plate and a plate of diluted compounds of Formula (I) were loaded into a fluorescent plate reader that added compounds onto the cells while measuring the fluorescence intensity of each well. The plate reader recorded fluorescence intensity at 1 second intervals for 8 min and provided the data for analysis in an Excel format. EC50 values were calculated using Prism (GraphPad) software.

[2] = molecular target: T2, rat GPR40 (Rattus norvegicus, UniProt Q8K3T4); experiment: GPR40 calcium flux assay, HEK293 cells stably expressing rat GPR40; assay type: cell-based; details: transfected HEK293 cells stably expressing rat GPR40, Fluo 8 dye, read-out: rGPR40 Ca2+ Assay EC50
T2 construct: expressed in transfected cells
Protocol: as §1

[3] = tested on: Male SD rats; experiment: Oral Glucose Tolerance Test, Version A; assay type: in vivo, rat; details: Assay Version A: fasted male SD rats, dosed 30 min prior to oGTT (glucose 2 g/kg po); blood glucose AUC t=0 to 120 min vs vehicle
Protocol: Male SD rats (200-250 g) were housed 2 per cage in a temperature-controlled room with a 12-hour light/dark cycle. They were allowed ad libitum access to water and fed with normal rodent chow. The night before the oral glucose tolerance test (oGTT), the rats were transferred to clean cages and fasted overnight. On the morning of the oGTT, the rats were weighed and randomized into groups based on fasted blood glucose and body weight. Rats were dosed with vehicle (0.5% methocel) or compounds thirty min prior to the oGTT (glucose, 2 g/kg, po). Blood was collected from the tail vein at 0, 10, 30, 60 and 120 minutes after glucose challenge to measure blood glucose; plasma was used to determine insulin levels. The area under the curve for blood glucose excursion was calculated from t=0 to t=120 minutes. Percent lowering of glucose was calculated from the AUC data with respect to the vehicle-treated group.

[4] = tested on: Male ZDF rats; experiment: Oral Glucose Tolerance Test, Version B; assay type: in vivo, rat; details: Assay Version B: fasted male ZDF rats, compound 10 mg/kg 120 min prior to OGTT (glucose 1 g/kg po); blood glucose AUC t=0 to 120 min vs vehicle
Protocol: Male ZDF rats (7 weeks old, 200-240 g) were housed 2 per cage in a temperature-controlled room with a 12-hour light/dark cycle. They were allowed ad libitum access to water and fed with 5008 rodent chow. The night before the oral glucose tolerance test (OGTT), the rats were transferred to clean cages and fasted overnight. On the morning of the OGTT, the rats were weighed and randomized into groups based on fasted blood glucose and body weight. Rats were dosed with vehicle (0.5% Methocel) or compound (10 mg/kg) 120 min prior to the OGTT (glucose, 1 g/kg, po). Blood was collected from the tail vein at 0, 10, 30, 60 and 120 minutes after glucose challenge to measure blood glucose; plasma was used to determine insulin levels. The area under the curve for blood glucose excursion was calculated from t=0 to t=120 minutes. Percent lowering of glucose was calculated from the AUC data with respect to the vehicle-treated group.

T1 sequence (O14842 whole entry): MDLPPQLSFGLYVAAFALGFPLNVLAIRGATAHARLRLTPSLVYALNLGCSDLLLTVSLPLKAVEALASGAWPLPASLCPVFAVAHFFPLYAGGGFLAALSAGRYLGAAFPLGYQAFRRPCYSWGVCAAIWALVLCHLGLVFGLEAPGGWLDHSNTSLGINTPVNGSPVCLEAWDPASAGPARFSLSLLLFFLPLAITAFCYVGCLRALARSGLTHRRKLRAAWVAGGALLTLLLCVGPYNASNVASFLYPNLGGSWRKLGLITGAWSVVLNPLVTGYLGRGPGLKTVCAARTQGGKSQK
T2 sequence (Q8K3T4 whole entry): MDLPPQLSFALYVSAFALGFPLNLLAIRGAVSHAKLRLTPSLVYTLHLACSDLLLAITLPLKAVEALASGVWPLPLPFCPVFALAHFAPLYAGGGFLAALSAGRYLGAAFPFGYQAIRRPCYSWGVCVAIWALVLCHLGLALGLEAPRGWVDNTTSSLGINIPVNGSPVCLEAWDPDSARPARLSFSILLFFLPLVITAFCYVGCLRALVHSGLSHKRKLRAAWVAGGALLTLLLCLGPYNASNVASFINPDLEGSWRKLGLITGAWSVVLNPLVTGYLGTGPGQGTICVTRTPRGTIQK

Row | SMILES | EC50 [1] [nM] | EC50 [2] [nM] | Percent Lowering of Glucose (AUC compound vs. AUC Vehicle) [3] [%] | Percent Lowering of Glucose (AUC compound vs. AUC Vehicle) [4] [%]
1 | COc1ccc(F)c([C@H]2CC[C@@H](COc3cccc([C@@H](CC(=O)O)C4CC4)c3)CC2)c1 [Cpd 1, (S)-3-Cyclopropyl-3-(3-(((1s,4R)-4-(2-fluoro-5-methoxyphenyl)cyclohexyl)methoxy)phenyl) propanoic acid] | 36.2 | 105 | 11 | –
2 | COc1ccc(F)c([C@H]2CC[C@H](COc3cccc([C@@H](CC(=O)O)C4CC4)c3)CC2)c1 [Cpd 2, (S)-3-Cyclopropyl-3-(3-(((1r,4 S)-4-(2-fluoro-5-methoxyphenyl)cyclohexyl)methoxy)phenyl) propanoic acid] | 0.8 | 3.4 | 33 | –
3 | COc1cc([C@H]2CC[C@H](COc3cc([C@@H](CC(=O)O)C4CC4)ccn3)CC2)c(F)cn1 [Cpd 25, (S)-3-Cyclopropyl-3-(2-(((1r,4S)-4-(5-fluoro-2-methoxypyridin-4-yl)cyclohexyl)methoxy)pyridin-4-yl)propanoic acid] | 5.3 | 1.3 | 28 | –
4 | COc1ccc(F)c([C@H]2CC[C@H](COc3cc([C@@H](CC(=O)O)C4CC4)ccn3)CC2)c1 [Cpd 27, (S)-3-Cyclopropyl-3-(2-(((1r,4s)-4-(2-fluoro-5-methoxyphenyl)cyclohexyl)methoxy)pyridin-4-yl)propanoic acid] | 0.2 | 0.9 | 32 | –
5 | COc1ccc(F)c([C@H]2CC[C@H](COc3cccc([C@H](C4CC4)[C@@](C)(F)C(=O)O)c3)CC2)c1 [Cpd 59, (2R,3S)-3-Cyclopropyl-2-fluoro-3-(3-(((1r,4S)-4-(2-fluoro-5-methoxyphenyl)cyclohexyl)methoxy)phenyl)-2-methylpropanoic acid] | 0.27 | 0.72 | – | 48
6 | COc1cc([C@H]2CC[C@H](COc3cccc([C@H](C4CC4)C(C)(F)C(=O)O)c3)CC2)c(F)cn1 (stereo partly drawn) [Cpd 61] | 0.25 | 0.53 | – | –
7 | COc1cc([C@H]2CC[C@H](COc3cccc([C@H](C4CC4)[C@@](C)(F)C(=O)O)c3)CC2)c(F)cn1 [Cpd 62] | 0.25 | 0.56 | – | –
8 | COc1cc([C@H]2CC[C@H](COc3cccc([C@H](C4CC4)[C@](C)(F)C(=O)O)c3)CC2)c(F)cn1 [Cpd 63] | 32.6 | 86.7 | – | –
9 | COc1ccc(Cl)c(C2CCC(COc3cccc([C@H](C4CC4)[C@@](C)(F)C(=O)O)c3)CC2)c1 (stereo partly drawn) [Cpd 64, (2R,3S)-3-(3-((4-(2-Chloro-5-methoxyphenyl)cyclohexyl)methoxy)phenyl)-3-cyclopropyl-2-fluoro-2-methylpropanoic acid] | 0.19 | 0.56 | – | –
10 | CCc1ccc(Cl)c(C2CCC(COc3cccc([C@H](C4CC4)C(C)(F)C(=O)O)c3)CC2)c1 (stereo partly drawn) [Cpd 65, (3S)-3-(3-((4-(2-Chloro-5-ethylphenyl)cyclohexyl)methoxy)phenyl)-3-cyclopropyl-2-fluoro-2-methylpropanoic acid] | 0.59 | 1.75 | – | –
11 | COc1cccc(C2CCC(COc3cccc([C@H](C4CC4)C(C)(F)C(=O)O)c3)CC2)c1 (stereo partly drawn) [Cpd 66, (3S)-3-Cyclopropyl-2-fluoro-3-(3-((4-(3-methoxyphenyl)cyclohexyl)methoxy)phenyl)-2-methylpropanoic acid] | 0.25 | 0.4 | – | –
12 | CCc1ccc(F)c([C@H]2CC[C@H](COc3cccc([C@H](C4CC4)C(C)(F)C(=O)O)c3)CC2)c1 (stereo partly drawn) [Cpd 68, (3S)-3-Cyclopropyl-3-(3-(((1r,4S)-4-(5-ethyl-2-fluorophenyl)cyclohexyl)methoxy)phenyl)-2-fluoro-2-methylpropanoic acid] | 0.27 | 2.22 | – | –
13 | COc1ccc(C)c(C2CCC(COc3cccc([C@H](C4CC4)C(C)(F)C(=O)O)c3)CC2)c1 (stereo partly drawn) [Cpd 70, (3S)-3-Cyclopropyl-2-fluoro-3-(3-((4-(5-methoxy-2-methylphenyl)cyclohexyl)methoxy)phenyl)-2-methylpropanoic acid] | 0.16 | 0.15 | – | –
14 | COc1ccc(C(=O)Nc2ccccn2)c(C2CCC(COc3cccc([C@H](C4CC4)C(C)(F)C(=O)O)c3)CC2)c1 (stereo partly drawn) [Cpd 71, (3S)-3-Cyclopropyl-2-fluoro-3-(3-((4-(5-methoxy-2-(pyridin-2-ylcarbamoyl)phenyl)cyclohexyl)methoxy)phenyl)-2-methylpropanoic acid] | 1.9 | 2.36 | – | –
15 | COc1ccc(F)c([C@H]2CC[C@H](/C=C/c3cccc([C@H](C4CC4)C(C)(F)C(=O)O)c3)CC2)c1 (stereo partly drawn) [Cpd 72, (3S)-3-Cyclopropyl-2-fluoro-3-(3-((E)-2-((1r,4S)-4-(2-fluoro-5-methoxyphenyl)cyclohexyl)vinyl)phenyl)-2-methylpropanoic acid] | 1.88 | 2.48 | – | –
16 | COc1ccc(F)c([C@H]2CC[C@H](CCc3cccc([C@H](C4CC4)C(C)(F)C(=O)O)c3)CC2)c1 (stereo partly drawn) [Cpd 73, (3S)-3-Cyclopropyl-2-fluoro-3-(3-(2-((1r,4R)-4-(2-fluoro-5-methoxyphenyl)cyclohexyl)ethyl)phenyl)-2-methylpropanoic acid] | 0.22 | 0.46 | – | –
17 | C[C@](F)(C(=O)O)[C@H](c1cccc(OC[C@H]2CC[C@H](c3cc(OC(F)(F)F)ccc3F)CC2)c1)C1CC1 [Cpd 74, (2R,3S)-3-Cyclopropyl-2-fluoro-3-(3-(((1r,4S)-4-(2-fluoro-5-(trifluoromethoxy)phenyl)cyclohexyl)methoxy)phenyl)-2-methylpropanoic acid] | 14.1 | 16.2 | – | –
18 | C[C@](F)(C(=O)O)[C@H](c1cccc(OCC2CCC(c3cc(F)ccc3F)CC2)c1)C1CC1 (stereo partly drawn) [Cpd 75, (2R,3S)-3-Cyclopropyl-3-(3-((4-(2,5-difluorophenyl)cyclohexyl)methoxy)phenyl)-2-fluoro-2-methylpropanoic acid] | 0.44 | 8.93 | – | –
19 | COc1ccc(F)c(C2=CCC(COc3cccc([C@H](C4CC4)[C@@](C)(F)C(=O)O)c3)CC2)c1 (stereo partly drawn) [Cpd 76, (2R,3S)-3-Cyclopropyl-2-fluoro-3-(3-((2′-fluoro-5′-methoxy-2,3,4,5-tetrahydro-[1,1′-biphenyl]-4-yl)methoxy)phenyl)-2-methylpropanoic acid] | 0.18 | 0.71 | – | –
20 | COc1ccc(F)c([C@H]2CC[C@H](CNc3cccc([C@H](C4CC4)C(C)(F)C(=O)O)c3)CC2)c1 (stereo partly drawn) [Cpd 77, (3S)-3-Cyclopropyl-2-fluoro-3-(3-((((1r,4S)-4-(2-fluoro-5-methoxyphenyl)cyclohexyl)methyl)amino)phenyl)-2-methylpropanoic acid] | 1.72 | 10.4 | – | –
21 | COc1ccc(F)c(C2CCC(OCc3cccc([C@H](C4CC4)C(C)(F)C(=O)O)c3)CC2)c1 (stereo partly drawn) [Cpd 78, (3S)-3-Cyclopropyl-2-fluoro-3-(3-(((4-(2-fluoro-5-methoxyphenyl)cyclohexyl)oxy)methyl)phenyl)-2-methylpropanoic acid] | 2.2 | 5.5 | – | –
22 | COc1ccc(F)c([C@H]2CC[C@H](COc3cc([C@H](C4CC4)C(C)(F)C(=O)O)ccn3)CC2)c1 (stereo partly drawn) [Cpd 79, (3S)-3-Cyclopropyl-2-fluoro-3-(2-(((1r,4S)-4-(2-fluoro-5-methoxyphenyl)cyclohexyl)methoxy)pyridin-4-yl)-2-methylpropanoic acid] | 13 | 28 | – | –
23 | COc1cc([C@H]2CC[C@H](COc3cc([C@H](C4CC4)C(C)(F)C(=O)O)ccn3)CC2)c(F)cn1 (stereo partly drawn) [Cpd 80, (3S)-3-Cyclopropyl-2-fluoro-3-(2-(((1r,4S)-4-(5-fluoro-2-methoxypyridin-4-yl)cyclohexyl)methoxy)pyridin-4-yl)-2-methylpropanoic acid] | 79 | 220 | – | –
